According to ChEMBL document CHEMBL2069300 (J Med Chem, 2012):
≈ marks a conversion by molar mass, not a printed value.

experiment: Aqueous solubility of the compound in phosphate buffered saline at pH 7.4; type: physicochemical; conditions: buffer

solubility [µM] | SMILES
453.9 (≈ 165 µg/mL) | COc1ccc(OC)c(S(=O)(=O)ON2C(=O)c3ccccc3C2=O)c1
338.8 (≈ 101 µg/mL) | Nc1nc2ccc(S(=O)(=O)N3CCCCC3)cc2s1
462 (≈ 153 µg/mL) | CCc1ccc(S(=O)(=O)ON2C(=O)c3ccccc3C2=O)cc1
218.7 | COC(=O)c1ccc2c(c1)C(C)(C)C(/C=C/c1ccc(O)cc1)=[N+]2C
377.4 (≈ 104 µg/mL) | Cc1cccc(N2COc3ccc4ccccc4c3C2)c1
0.7 | CCOc1ccc(/C=C/C2=[N+](C)c3ccc(C(=O)OC)cc3C2(C)C)cc1
0.2 | COC(=O)c1ccc(/C=C/C2=[N+](C)c3ccc(OC)cc3C2(C)C)cc1
21.9 (≈ 9.1 µg/mL) | CCCS(=O)(=O)c1oc(-c2cccs2)nc1S(=O)(=O)c1ccc(F)cc1
49.9 (≈ 19.1 µg/mL) | CCS(=O)(=O)c1oc(-c2cccs2)nc1S(=O)(=O)c1ccccc1
17.6 (≈ 7.56 µg/mL) | CC(C)CS(=O)(=O)c1oc(-c2cccs2)nc1S(=O)(=O)c1ccc(F)cc1
34.2 (≈ 13.6 µg/mL) | CC(C)S(=O)(=O)c1oc(-c2cccs2)nc1S(=O)(=O)c1ccccc1
576 (≈ 168 µg/mL) | Cc1c(C=O)c(C(=O)O)c(C)n1Cc1ccc(Cl)cc1
493 (≈ 192 µg/mL) | COCC(=O)Oc1c(Sc2ccc(Cl)cc2)c(C)nn1-c1ccccc1
487 (≈ 143 µg/mL) | CCCCNC(=O)Cn1sc2nc(C)cc(C)c2c1=O
273.3 | COc1ccc(/C=C/C2=[N+](C)c3ccc(OC)cc3C2(C)C)cc1
0.1 | COC(=O)c1ccc2c(c1)C(C)(C)C(/C=C/c1ccc(OC)cc1)=[N+]2C
503.4 (≈ 187 µg/mL) | Cc1[nH]c2ccccc2c1C(Nc1ccccc1)c1ccc(CCCO)cc1 (centres undefined)

SMILES | solubility [µM]
O=Cc1nc2ccccc2n1Cc1ccc2ccccc2c1 | 42.1 (≈ 12.1 µg/mL)
O=Cc1nc2ccccc2n1Cc1ccc(Cl)cc1Cl | 15.3 (≈ 4.67 µg/mL)

experiment: Stability of the compound in water at neutral pH after 24 hrs; type: physicochemical; conditions: buffer

Stability | SMILES
Stable | Cc1[nH]c2ccccc2c1C(Nc1ccccc1)c1ccccc1 (centres undefined)
Stable | Cc1[nH]c2ccccc2c1C(Nc1ccccc1)c1ccc(Cl)cc1 (centres undefined)
Stable | COc1ccc(C(Nc2ccccc2)c2c(C)[nH]c3ccccc23)cc1 (centres undefined)
Stable | Cc1ccc(C(Nc2ccccc2)c2c(C)[nH]c3ccccc23)cc1 (centres undefined)
Stable | Cc1[nH]c2ccccc2c1C(Nc1ccccc1)c1ccc(N(C)C)cc1 (centres undefined)
Stable | Cc1[nH]c2ccccc2c1C(Nc1ccccc1)c1ccc([N+](=O)[O-])cc1 (centres undefined)
Stable | Cc1[nH]c2ccccc2c1C(C)Nc1ccccc1 (centres undefined)
Stable | Cc1[nH]c2ccccc2c1C(Nc1ccccc1)c1ccc2ccccc2c1 (centres undefined)
Stable | Cc1[nH]c2ccccc2c1C(Nc1ccccc1)c1ccc(CCCO)cc1 (centres undefined)
Stable | Cc1[nH]c2ccccc2c1C(Nc1ccccc1)c1ccccc1Cl (centres undefined)
Stable | Cc1[nH]c2ccccc2c1C(Nc1ccc(Cl)cc1)c1ccccc1Cl (centres undefined)
Stable | COc1ccc(NC(c2ccccc2Cl)c2c(C)[nH]c3ccccc23)cc1 (centres undefined)
Stable | Cc1ccc(NC(c2ccccc2Cl)c2c(C)[nH]c3ccccc23)cc1 (centres undefined)
Stable | Cc1[nH]c2ccccc2c1C(Nc1ccc(N(C)C)cc1)c1ccccc1Cl (centres undefined)
Stable | Cc1[nH]c2ccccc2c1C(Nc1ccc([N+](=O)[O-])cc1)c1ccccc1Cl (centres undefined)
Stable | Cc1[nH]c2ccccc2c1C(Nc1ccc(C(F)(F)F)cc1)c1ccccc1Cl (centres undefined)
Stable | COc1ccccc1NC(c1ccccc1Cl)c1c(C)[nH]c2ccccc12 (centres undefined)
Stable | Cn1cc(C(Nc2ccccc2)c2ccccc2Cl)c2ccccc21 (centres undefined)
Stable | Clc1ccccc1C(Nc1ccccc1)c1c[nH]c2ccccc12 (centres undefined)
Stable | Cc1[nH]c2ccccc2c1C(Sc1ccccc1)c1ccccc1Cl (centres undefined)
